What was measured:
db/db diabetic mice = assay: CLI induced by ULFA in db/db diabetic mice, treated with MDSC and/or molsidomine; assay type: in vivo; details: 3 weeks
Protocol: CLI was induced by ULFA in db/db diabetic mice and treated as follows (n=8/group), for studying the effect of a long-acting NO donor, molsidomine: 1) Untreated (UT): vehicle; 2) MDSC (SC): MDSC into gastrocnemius; 3) MDSC-molsidomine (SC+Mol): as #2, and IP molsidomine (5 mg/kg/day); 4) Molsidomine (Mol) as in #3, no MDSC. Non-diabetic non-ULFA untreated (ND-UT) mice were controls.
At 3 weeks after initiating treatment, mortality, leg preservation, and limb loss/motion/ischemia were determined. Stem cell, myogenic, angiogenic, lipofibrosis, and neurogenesis markers were assayed in muscle tissue by quantitative histochemistry and immunohisto-chemistry and western blot.

[1] = system: rat models for insulin resistance and T2DM; assay: Low oral dose pioglitazone in rat models for insulin resistance and T2DM; assay type: in vivo

Compound: CCOC(=O)[N-]c1cn(N2CCOCC2)n[o+]1 [molsidomine]
- follistatin expression in the skeletal muscle (db/db diabetic mice): decrease
- stem cell number, expression of stem cell marker nuclear Oct 4a in the skeletal muscle (db/db diabetic mice; gastrocnemius of ischemic leg, quantitative western blot): reduced this effect
- number of central nuclei (early stage of myofiber repair) (db/db diabetic mice; hematoxylin-eosin histochemistry): slightly inhibitory
- fat infiltration in the skeletal muscle (Oil Red O) (db/db diabetic mice; quantitative histochemistry): did not reduce
- fibrosis, collagen deposition in the skeletal muscle (Masson trichrome) (db/db diabetic mice; quantitative histochemistry): did not exert this noxious effect
- vascular endothelial growth factor (VEGF) expression in the skeletal muscle (angiogenesis) (db/db diabetic mice; quantitative western blot): also angiogenic
- vascular endothelium, CD-31 expression in the skeletal muscle (db/db diabetic mice; quantitative western blot): increase
- vascular endothelium, von Willebrandt factor expression in the skeletal muscle (db/db diabetic mice; quantitative western blot): increase
- vascular smooth muscle marker calponin in the skeletal muscle (db/db diabetic mice; quantitative western blot): abolished the effect

Compound: CCc1ccc(CCOc2ccc(CC3SC(=O)NC3=O)cc2)nc1 (stereo not drawn) [pioglitazone]
- side effects ([1]; glycemia-normalizing dose of 12 mg/kg/day): obesity and fat infiltration in the tissues
- body weight ([1]; low oral dose 0.6 mg/kg/day): does not exert glycemic control or increase body weight
- glycemia ([1]; low oral dose 0.6 mg/kg/day): 250 to 300 mg/dL
